According to patent US20240238256A1, “NITAZOXANIDE IN THE TREATMENT OF SEPSIS” (GENFIT, priority 2021, published 2024):

How the values were obtained:
[1] = system: polymicrobial sepsis induced by cecal ligation and puncture (CLP); test: CLP-induced polymicrobial sepsis, survival (Example 1); assay type: in vivo, C57BL6J male mice
Text: Polymicrobial sepsis induced by cecal ligation and puncture (CLP) is characterized by dysregulated systemic inflammatory responses followed by immunosuppression. The CLP model in mice mimics the progression and features of human sepsis and is thus also useful to determine whether a drug would be efficient in the treatment of prevention of transition from sepsis to septic shock.
This study aims to investigate the efficacy of NTZ in CLP model in C57BL6J (BL6) male mice. The efficacy of the test compound was evaluated based on the survival rate of the animals within the study period.
C57BL6J male mice (supplier Janvier—France) at 9 weeks of age and weighing 23-25 g on arrival were anesthetized with 250 µL of xylazine/ketamine solution (6.75 mg/kg for ketamine (Imalgene, Boehringer, Germany) et 2.5 mg/kg for xylazine (Rompund 2%, Bayer, Germany)) by intraperitoneal route. A 1-1.5 cm abdominal midline incision was made, and the cecum was located and tightly ligated at half the distance between distal pole and the base of the cecum with 4-0 silk suture (mild grade). The caecum was punctured through-and-through once with a 21-gauge needle from mesenteric toward antimesenteric direction after medium ligation. A small amount of stool was extruded to ensure that the wounds were patent. Then the cecum was replaced in its original position within the abdomen, which was closed with sutures and wound clips. Mice were followed for body weight evolution and mortality rate until Day 7.
NTZ (Interchim, France) was administered by oral gavage at 50 mg/kg BID. NTZ treatment was initiated 3 days before CLP. The day of the surgery, NTZ was given once (50 mg/kg) 1 h before CLP and then a second time when animals have recovered from anesthesia (50 mg/kg). BID treatments was then pursued daily until the end of the study (n=15). Mice receiving NTZ vehicle (carboxymethylcellulose (#C4888, Sigma-Aldrich, Germany) BID served as controls (n=10). […]

[2] = system: polymicrobial sepsis induced by CLP surgery; test: CLP-induced sepsis, survival and welfare scoring, NTZ with or without 3-day pretreatment (Example 4); assay type: in vivo, C57BL6J mice; conditions: for mortality at 55 hours post-surgery: control group 60%; for mice survived sepsis at the end of the study: untreated 12.5%
Procedure: Polymicrobial sepsis was induced by CLP surgery in C57BL6J mice, as described in Example 1. NTZ was prepared as previously described and administrated per os at 100 mg/kg/day BID either starting 3 days before CLP (3 day pretreatment) or starting on the same day as the CLP surgery (without pretreatment) as shown in FIG. 5A. C57BI/6J male mice (8 week-old, Janvier, France) were divided into 3 groups of 24 mice each, after 7 days acclimation: • Group 1 received vehicle for 3 days before surgery and for 6 days after CLP surgery. • Group 2 received nitazoxanide (NTZ) for 3 days before surgery and then for 6 days after CLP surgery (pretreatment). • Group 3 received vehicle for 3 days before surgery and then NTZ for 6 days after CLP surgery (without pretreatment).
Treatments with NTZ were made twice daily at 9 am and […]. The day of the CLP surgery (Day 0), mice received NTZ or vehicle one hour before being anaesthetized (groups 2 and 3).
Welfare scoring of severity of murine sepsis model has been published to harmonize human end points and also to normalize grades observed between animals throughout experiments (Shrum B, Anantha R V, Xu S X et al. A robust scoring system to evaluate sepsis severity in an animal model. BMC Res Notes 2014; 7:233). Animals were individually observed, and changes were recorded and scored according to their intensity. Observations included changes in appearance, activity, response to stimuli, eyes opening, breathing quality and evolution of body weight. For each of these clinical signs, the severity was measured on a scale of 0 to 3. The evolution of the severity was followed and the mean score at each time point was calculated and plotted on graphs. Arbitrary, when mice die or are euthanized, they are scored at 4.

[3] = system: polymicrobial sepsis induced by CLP surgery; test: CLP-induced sepsis, survival and welfare scoring, NTZ before/after or only after surgery (Example 5); assay type: in vivo, C57BL6J mice; conditions: for mortality at 55 hours post-surgery: control group 55%; for mice survived sepsis at the end of the study (day 7): untreated 20%
Procedure: Polymicrobial sepsis was induced by CLP surgery in C57BL6J mice, and NTZ was prepared and administrated per os, as described previously. […]
During the 6 days following the surgery, treatments with NTZ were made twice daily at 9 am and 5 pm at the dose of 100 mg/kg/day (p.o. BID) per mouse. Control mice received vehicle the same way to avoid any deviations between control and treated mice.

[4] = system: caspase 3/7 activity in HepG2 cells; test: Staurosporine-induced apoptosis (caspase 3/7 activity) in HepG2 cells; assay type: cell-based, human; conditions: for inhibition at 6 µM: Homo sapiens, HepG2, 6 μM
Procedure: The human hepatoblastoma-derived HepG2 cell line was cultured as described in Example 2. Caspase 3/7 activity was assessed in 1.5×10^4 cells plated in a 384-well plate (#781080, Greiner, France). After cell adherence (8 hours), cells were serum starved for 16 h with or without TZ, the active metabolite of NTZ. […] Caspase 3/7 activity was measured as previously described.

[5] = system: caspase 3/7 activity in HepG2 cells; test: TNFα-induced apoptosis (caspase 3/7 activity) in HepG2 cells; assay type: cell-based, human; conditions: for increased caspase 3/7 activity: 24 hours
Procedure: In order to evaluate the effect of NTZ on human hepatocytes that undergo a cellular stress induced by cytokines, the human hepatoblastoma-derived HepG2 cell line (#85011430, ECACC, UK) was cultured with or without TZ, the active metabolite of NTZ, in high-glucose DMEM medium (#41965, Gibco, France) supplemented with 10% of fetal bovine serum (FBS, #10270, Gibco), 1% penicillin/streptomycin (#15140, Gibco), 1% sodium pyruvate (#11360, Gibco) and 1% MEM non-essential amino acids (#11140, Gibco) in a 5% CO2 incubator at 37° ° C. To evaluate caspase 3/7 activity, which is a surrogate marker of apoptosis, 5×10^4 cells were plated in a 96-well plate (Thermo Fischer, Germany). After cell adherence (8 hours), cells were pre-treated with a dose range of 0.3 to 3 μM of TZ (Interchim, France), in FBS-deprived cell culture medium for 16 h. Thereafter, tumor necrosis factor α (TNFα) (#C6378, Promocell, Germany) was added to the wells at the dose of 10 or 30 ng/ml for additional 24 hours. Staurosporine (10 μM) (#19-123MG, Sigma-Aldrich, Germany) was used as a reference to induce apoptosis. Cells were incubated with staurosporine 3 hours before Caspase activity measurement. Caspase 3/7 activity was measured using Caspase Glow™ 3/7 assay (#G8093, Promega, USA). Luminescence was measured using a Spark microplate reader (#30086376, Tecan, USA). The amount of luminescence (RLU) directly correlates with caspase 3/7 activity.

[6] = NTZ per os 100 mg/kg/day BID from day of CLP, without pretreatment
[7] = NTZ per os 100 mg/kg/day BID with 3-day pretreatment
[8] = NTZ BID T-1 h/T+3.5 h, 100 mg/kg/day p.o.
[9] = NTZ QD T+3.5 h (100 mg/kg) then 50 mg/kg BID p.o.
[10] = concomitant addition with staurosporine, without pretreatment

C[C@@H](O)[C@H]1C(=O)N2C(C(=O)O)=C(S[C@@H]3CN[C@H](C(=O)Nc4cccc(C(=O)O)c4)C3)[C@H](C)[C@H]12 [Ertapenem]
mice saved at the end of the study ([1]; Ertapenem 10 mg/kg intraperitoneal, 1 h before surgery and daily after CLP, Day 7): 10%

CC(=O)Oc1ccccc1C(=O)Nc1ncc([N+](=O)[O-])s1 [NTZ, [2-[(5-nitro-1,3-thiazol-2-yl)carbamoyl]phenyl]ethanoate]
mortality at 55 hours post-surgery [2, 6]: 17% | mice survived sepsis at the end of the study [2, 6]: 58.3% | mortality at 55 hours post-surgery [2, 7]: 25% | mice survived sepsis at the end of the study [2, 7]: 45.8% | mortality at 55 hours post-surgery [3, 8]: 5% | mice survived sepsis at the end of the study (day 7) [3, 8]: 80% | mortality at 55 hours post-surgery [3, 9]: 15% | mice survived sepsis at the end of the study (day 7) [3, 9]: 70% | mice survived 7 days after intervention ([1]; NTZ oral gavage 50 mg/kg BID, started 3 days before CLP): 33% | mice still alive 3 days after surgery ([1]; NTZ oral gavage 50 mg/kg BID, started 3 days before CLP, vehicle group 100% mortality at 3 days): 47% | inhibition at 6 µM [4, 10]: 78%

O=C(Nc1ncc([N+](=O)[O-])s1)c1ccccc1O [TZ, tizoxanide]
inhibition at 3 µM ([5]; Homo sapiens, 3 μM TZ, 16 h pretreatment, 10 ng/ml TNFα): 40% | reduction of caspase activity ([5]; TZ pretreatment, higher TNFα dose (30 ng/ml)): this effect was confirmed with the higher TNFα dose | inhibition at 6 µM ([4]; 16 h pretreatment, staurosporine 30 μM): 82% | inhibition at 6 µM [4, 10]: 64%

CN[C@@H]1C[C@H]2O[C@@](C)([C@@H]1OC)n1c3ccccc3c3c4c(c5c6ccccc6n2c5c31)C(=O)NC4 [staurosporine]
increase of caspase 3/7 activity ([4]; staurosporine 30 μM, 4 hours): 11 fold

TNFα
increased caspase 3/7 activity ([5]; 10 ng/ml TNFα): 1.5 fold | increased caspase 3/7 activity ([5]; 30 ng/ml TNFα): 1.7 fold
